Reference: patent US3988466A, “Prevention of gastric lesions” (priority 1973, dated 1976)
“And” between values parts separate entries of the source, which are not always exact repeats. Equal values may be shown once. “Also recorded” adds a separate entry of the source. Read-outs that look alike come from different tables or passages of the source.

Legend:
[1] = pH of amino acids in 1% carboxymethylcellulose solution; type: physicochemical; conditions: 150 mg/ml in 1% carboxymethylcellulose solution
Description: The pH values of the amino acids are also determined. The amino acids are separately dissolved or suspended in 1% carboxymethylcellulose solution at a concentration of 150 mg/ml and the pH is measured on an Hitachi pH meter (product of Hitachi Ltd., Japan).

[2] = test system: aspirin-induced gastric lesions in pylorus-ligated rats; experiment: Effect of various amino acids on aspirin-induced gastric lesions in pylorus-ligated rats (Experiment 3); type: in vivo, male Donryu strain rats
[3] = test system: gastric secretion in pylorus-ligated rats; experiment: Effect of L-glutamine on gastric secretion in pylorus-ligated rats (Experiment 4); type: in vivo, male Donryu strain rats
Description: In this Experiment, 7 groups of male Donryu strain rats are used. After 24 hours of fasting, the pylorus of the animal is ligated in the same manner as described in Experiment 1. Six groups are treated in the same manner as described in Experiment 1 except for the injection of the solution of pontamine sky blue 6BX in saline. A seventh group (normal) is treated twice with 5 ml/kg of 1% carboxymethylcellulose solution.
After 7 hours of pylorus ligation, the animals are killed and the stomach is removed. The gastric juice is collected and the volume is measured. The gastric juice is titrated to pH 7.4 with 0.1N NaOH using an electromatic pH meter. The concentration of pepsin in the gastric juice is also determined according to Anson's hemoglobin method [Anson, M. L., J. Gen. Physiol.

[4] = test system: yeast-induced fever in rats; experiment: Effect of L-glutamine on antipyretic activity of aspirin in rats (Experiment B); type: in vivo, male Wistar strain rats; conditions: aspirin 200 mg/kg oral
Description: In this Experiment, male Wistar strain rats weighing about 90-100 g are treated with 2.5 ml/rat of a suspension of yeast (Brewers Yeast, product of Nutritional Biochem. Co., U.S.A.) in physiological saline (concentration: 250 mg/ml), by subcutaneous injection in the back, according to the method of Gleen et al [Gleen, E. M. et al: J. Pharma. Exp. Therp., 155, 157 (1967)]. The animals are then fasted. The animals showing an increased rectal temperature of 38° C or more after 17 hours are selected for use in experiment. […] As a control, one group is treated with 105 ml of 1% carboxymethylcellulose solution alone. After the treatment, the rectal temperature is measured at the time indicated.

[5] = test system: acetic acid-induced writhing response in mice; experiment: Effect of L-glutamine on analgesic activity of aspirin in mice (Experiment C); type: in vivo, male dd strain mice; conditions: aspirin 300 mg/kg oral; writhings in 10 minutes
Description: In this Experiment, 3 groups of male dd strain mice weighing 19-21 g are used.
As a control, the third group is treated only with 1% carboxymethylcellulose solution. After a control period of one hour, the animals are treated with 0.2 ml of 0.7% acetic acid solution in physiological saline by intraperitoneal injection, according to the method of Koster et al. [Koster, R. et al: Fed. Proc., 18, 412 (1959)]. Starting 10 minutes after the administration of acetic acid, the number of writhing reaction occurred in 10 minutes is counted.

[6] = Rattus norvegicus, po; read-out: Inhibition
[7] = amino acid 750 mg/kg oral; aspirin by gastric intubation
[8] = Rattus norvegicus, po, read-out: Inhibition
[9] = Control group: aspirin 100 mg/kg without L-glutamine, 7 hours

Compound	Amino acid pH [1]	inhibition in vivo at 750 mg/kg [2, 6]	Ulcer index [2, 7]	effect on aspirin-induced gastric lesions (in words) ([2]; amino acid 750 mg/kg oral)	also measured
NC(Cc1c[nH]c2ccccc12)C(=O)O (racemic) [DL-tryptophan]	8.27	39.2%	27.4±4.3 mm		
NC(=O)CC[C@@H](N)C(=O)O [D-glutamine]	5.51	82.9%	7.7±1.8 mm		
C[C@H](N)C(=O)O [L-alanine]	6.45	85.1%	6.7±1.5 mm		
N=C(N)NCCC[C@H](N)C(=O)O [L-arginine]	11.00		0.9±0.5 mm	prevent the aspirin-induced gastric lesions almost completely; also recorded: best preventive effect	inhibition in vivo at 750 mg/kg [2, 8]: 98%
NC(=O)C[C@H](N)C(=O)O [L-asparagine]	5.80	77.8%	10.0±2.2 mm		
N[C@@H](CC(=O)O)C(=O)O [L-aspartic acid]	3.33	17.3%	37.3±6.9 mm	no appreciable effect; also recorded: no significant effect	
O=C(O)[C@@H]1C[C@@H](O)CN1 [L-hydroxyproline]	7.86		12.8±2.6 mm	effective for the prevention of the gastric lesions with high significance	inhibition in vivo at 750 mg/kg [2, 8]: 71.6%
NCCCC[C@H](N)C(=O)O [L-lysine]	10.26		0.4±0.2 mm	prevent the aspirin-induced gastric lesions almost completely; also recorded: best preventive effect	inhibition in vivo at 750 mg/kg [2, 8]: 99.1%
N[C@@H](Cc1ccc(O)cc1)C(=O)O [L-tyrosine]	7.52 and 7.25		39.3±3.0 mm	no appreciable effect; also recorded: no significant effect	inhibition in vivo at 750 mg/kg [2, 8]: 12.9%
CC(=O)Oc1ccccc1C(=O)O [aspirin, reference compound]					Gastric juice volume [3, 9]: 12.5 ± 0.5 mL; Pepsin concentration [3, 9]: 31.8 ± 1.0 mg/mL; Titrable acidity [3, 9]: 65.1±5.7 mEq/L; concentration of pepsin (in words) ([3]; administration of aspirin): increased; effect on acid output (in words) ([3]; aspirin itself): considerably reduces the titrable acidity and acid output; effect on titrable acidity (in words) ([3]; aspirin itself): considerably reduces the titrable acidity; effect on volume of gastric juice (in words) ([3]; aspirin itself): does not affect the volume of gastric juice; Rectal temperature ([4]; 0 hour): 38.4±0.1 °C; Rectal temperature ([4]; 1 hour): 37.9±0.1 °C; Rectal temperature ([4]; 2 hours): 36.7±0.2 °C; Rectal temperature ([4]; 4 hours): 36.6±0.1 °C; Rectal temperature ([4]; 6 hours): 36.9±0.2 °C; Writhing response number [5]: 10±1
NCC(=O)O [glycine]	6.12		6.4±1.7 mm		inhibition in vivo at 750 mg/kg [2, 8]: 85.8%

Continued, in another order:

Amino acid pH [1]	Compound	inhibition in vivo at 750 mg/kg [2, 6]	Ulcer index [2, 7]	effect on aspirin-induced gastric lesions (in words) ([2]; amino acid 750 mg/kg oral)	also measured
5.81	N[C@@H](CS)C(=O)O [L-cysteine]	10.2%	40.5±7.6 mm	no appreciable effect	
6.62	N[C@@H](CSSC[C@H](N)C(=O)O)C(=O)O [L-cystine]	7.8%	41.6±3.9 mm	no appreciable effect	
3.45	N[C@@H](CCC(=O)O)C(=O)O [L-glutamic acid]	79.8%	9.1±2.6 mm	good effect	
7.86	N[C@@H](Cc1c[nH]cn1)C(=O)O [L-histidine]	95.3%	2.1±0.8 mm		
6.60	CC[C@H](C)[C@H](N)C(=O)O [L-isoleucine]	72.6%	11.9±2.3 mm	effective for the prevention of the gastric lesions with high significance	
7.15	CC(C)C[C@H](N)C(=O)O [L-leucine]	80.5%	8.8±2.8 mm		
6.09	CSCC[C@H](N)C(=O)O [L-methionine]	71.2%	13.0±3.3 mm	effective for the prevention of the gastric lesions with high significance	
6.26	N[C@@H](Cc1ccccc1)C(=O)O [L-phenylalanine]	52.3%	21.5±3.7 mm	significant inhibition of the lesions	
6.32	O=C(O)[C@@H]1CCCN1 [L-proline]	77.6%	10.1±2.3 mm		
6.11	N[C@@H](CO)C(=O)O [L-serine]	93.3%	3.0±1.0 mm		
6.26	C[C@@H](O)[C@H](N)C(=O)O [L-threonine]	89.6%	4.7±1.1 mm		
6.80	CC(C)[C@H](N)C(=O)O [L-valine]	91.8%	3.7±1.3 mm		
